The results in this text go back to patent US20230365546A1, “5-SUBSTITUTED INDOLE 3-AMIDE DERIVATIVES, PREPARATION METHOD AND USE THEREOF” (ORIGIANT PHARMACEUTICAL CO., LTD, priority 2020, published 2023).

Series [1] concerns RIPK1 autophosphorylation, phosphorylation of RIPK3 and MLKL. Put plainly: Regulation of RIPK1 signaling pathway (Western blot). Format: cell-based. The note with it: TNF α/Smac mimetic/Z-VAD-FMK induced, FIG. 4. From the text:
TNF α was purchased from PeproTech Inc., Smac mimetic and Z-VAD-FMK was purchased from Selleck Inc., RIPA lysis buffer was purchased from Beyotime Institute of Biotechnology, cocktail was purchased from MedChemExpress (MCE) Limited, PMSF protease inhibitors, sodium dodecylsulfonate SDS, and glycine were purchased from Sigma Inc., acrylamide, tris(hydroxymethyl)aminomethane Tris, ammonium persulfate APS and N,N,N′,N′-tetramethyl ethylenediamine TEMED were purchased from Wuhan Servicebio Technology Co., Ltd.
Extraction of total cellular protein: after the cells were treated by adding the corresponding concentration of Compounds 94 and 46 or blank vehicle to the cell supernatant and induced with TNF α/Smac mimetic/Z-VAD-FMK combination for a certain period of time, the supernatant was discarded, followed by washing three times with pre-cooled PBS or normal saline, then an appropriate volume of RIPA lysis buffer (containing 1% cocktail and 1% PMSF protease inhibitor) was added, the mixture was immediately placed on ice horizontally for lysis of 15 min, then the cell lysis buffer was scraped with a scraper and transferred to a 1.5 ml EP tube, and the cells were disrupted with a sonicator. The tubes were then centrifuged in a low temperature high speed centrifuge (12000 rpm, 15 min) to remove cell debris. […]
A general note: In western blotting, separated proteins are transferred to a membrane and probed.

Series [2] deals with hERG potassium channel (Homo sapiens (Human), UniProt Q12809). Put plainly: cell-based. Here is the method:
Stable HEK-hERG cells were washed with DPBS, digested with Trypsin or Tryple solution, resuspended in culture medium, and stored in centrifuge tubes for use.
hERG currents were recorded with a whole-cell patch clamp technique. The cell suspension was placed in a small petri dish and placed on an objective table of an inverted microscope. After attachment, the cells were perfused with extracellular fluid at a recommended flow rate of 1-2 mL/min. The glass microelectrode was pulled in two steps by a microelectrode puller, and the resistance in electrode fill solution was 2-5 MΩ.
After establishing the whole-cell recording mode, the clamping potential was kept at −80 mV. […] This set of pulses was repeated every 15 seconds throughout the experiment.
After the current was stable, continuous extracellular perfusion administration was conducted from low concentration to high concentration. The perfusion was continued from a low concentration until the pharmaceutical effect was stable, and then the perfusion of the next concentration was conducted.
if it was unstable, this concentration data would not be taken.
IC50 values were obtained by fitting the Hill equation (if applicable): […]

In series [3] the test system is TNF α-induced SIRS. Put plainly: TNF α-induced mouse SIRS model. In kind it is in vivo. The protocol: TNF α formulated in sterile normal saline was administered at a dose of 500 μg/kg by tail vein injection for modeling. The body temperature of the mice was measured by an infrared electric thermometer. The orally-administrated vehicle was 25% castor oil in ethanol and 75% normal saline. Compounds 94 and 46 and RIPK1 positive compound GSK2982772 were administered orally before modeling with a dose of 40 mg/kg. Body temperature and the survival of mice were recorded every hour and recorded for 24 h and 48 h after 11 h.
This experiment established a TNF α-induced SIRS mouse model to evaluate the in vivo activity of compounds of the present invention. TNF α formulated in sterile normal saline was administered to mice at a dose of 500 μg/kg by tail vein injection for modeling. Since the measurement of rectal temperature would cause mechanical injury to mice and may interfere with the experimental results, an infrared electric thermometer was used to measure the body temperature of mice and the survival condition was observed. Compounds 94 and 46 were administered at a dose of 40 mg/kg once prior to modeling. The Vehicle group was given the corresponding vehicle control.

Sequence of hERG potassium channel (Q12809 whole entry): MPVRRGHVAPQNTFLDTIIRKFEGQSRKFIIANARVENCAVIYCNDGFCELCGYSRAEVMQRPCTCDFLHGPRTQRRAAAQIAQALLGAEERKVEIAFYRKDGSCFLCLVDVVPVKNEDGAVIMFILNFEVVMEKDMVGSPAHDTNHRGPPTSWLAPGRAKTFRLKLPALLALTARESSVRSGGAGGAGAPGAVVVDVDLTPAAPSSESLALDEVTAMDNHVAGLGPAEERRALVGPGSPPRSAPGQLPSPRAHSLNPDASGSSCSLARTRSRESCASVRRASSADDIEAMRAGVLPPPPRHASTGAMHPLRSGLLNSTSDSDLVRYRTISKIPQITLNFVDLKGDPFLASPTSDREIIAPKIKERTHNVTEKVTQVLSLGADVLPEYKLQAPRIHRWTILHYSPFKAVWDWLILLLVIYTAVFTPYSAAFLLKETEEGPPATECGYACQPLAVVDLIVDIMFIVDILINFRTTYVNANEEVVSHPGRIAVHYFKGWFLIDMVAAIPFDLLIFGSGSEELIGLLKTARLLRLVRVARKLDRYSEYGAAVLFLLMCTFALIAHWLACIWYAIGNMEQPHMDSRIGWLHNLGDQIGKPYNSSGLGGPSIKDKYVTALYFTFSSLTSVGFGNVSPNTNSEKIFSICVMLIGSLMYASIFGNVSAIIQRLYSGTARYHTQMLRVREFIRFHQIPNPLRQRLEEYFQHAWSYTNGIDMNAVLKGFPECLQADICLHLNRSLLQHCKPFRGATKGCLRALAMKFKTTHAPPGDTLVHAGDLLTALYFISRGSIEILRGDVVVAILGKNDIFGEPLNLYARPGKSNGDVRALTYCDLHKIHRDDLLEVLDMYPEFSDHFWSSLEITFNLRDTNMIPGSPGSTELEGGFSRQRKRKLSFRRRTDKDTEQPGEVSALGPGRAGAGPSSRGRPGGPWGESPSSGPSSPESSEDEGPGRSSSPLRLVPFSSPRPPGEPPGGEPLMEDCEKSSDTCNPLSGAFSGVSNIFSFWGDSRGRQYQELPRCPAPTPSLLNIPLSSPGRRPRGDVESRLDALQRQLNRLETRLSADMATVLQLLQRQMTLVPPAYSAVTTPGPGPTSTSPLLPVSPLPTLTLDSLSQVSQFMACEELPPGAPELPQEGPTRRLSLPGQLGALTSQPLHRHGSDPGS

Consider `C[C@H](NC(=O)c1cn(C)c2ccc(-c3ccn4nc(NC(=O)C5CC5)nc4c3)cc12)c1cccc(F)c1` [Compound 94, (S)-5-(2-(cyclopropanecarboxamido)-[1,2,4]triazolo[1,5-a]pyridin-7-yl)-N-(1-(3-fluorophenyl)ethyl)-1-methyl-1H-indole-3-carboxamide], for which, in series [1], the “Effect on necrotic signaling pathway (RIPK1 autophosphorylation, RIPK3 and MLKL phosphorylation)” value was “affected the phosphorylation of RIPK3 and MLKL downstream of RIPK1 by inhibiting its autophosphorylation”. For the same compound, the IC50 – broadly, the concentration that gives 50% inhibition – in series [2] is more than 30 µM. Besides, the “Average inhibitory ratio on hERG potassium channel current” value in series [2] (human, 30 μM) is 3.40%. Also, the Overall mortality entry in series [3] (40 mg/kg oral once before TNF α 500 μg/kg i.v., compared with Vehicle group) is reported as “significantly reduced”. Further, in series [3] (40 mg/kg oral once before TNF α 500 μg/kg i.v., within 11 h), the “Body temperature of mice” value was “relatively normal”. Moreover, the “Protective effect compared with positive drug” value in series [3] (40 mg/kg oral, vs GSK2982772 40 mg/kg) is reported as “better protective effect than positive drug GSK2982772”.
